Test results reported in patent publication US12245591B2, “Templated antimicrobial microgels and methods of making and using the same” (THE BOARD OF TRUSTEES OF THE UNIVERSITY OF ARKANSAS, priority 2019, dated 2025).
Converted amounts (≈) assume the structure as drawn. Like-named read-outs stand apart in the source and are kept apart here.

Experiments:
[1] = Stability of galactonoamidine against hydrolysis under buffer and temperature conditions (HPLC, NMR); assay type: physicochemical
Description: The instrumentation, reagents, and materials for this study were recently described. [Sharma, B. et al. Biomacromolecules 2018, 19, 1164-1174; Sharma, B. et al. […]. 2018, 8, 7710-7718] The computational analysis was performed with PQSmol as reported. [Sharma Biomacromolecules 2018; […]. et al. Dalton Trans. 2016, 45, 15203-15210; Becke, A. D. J. Chem. Phys. 1993, 98, 5648-5652; Lee, C. et al. Phys. Rev. B: Condens. Matter Mater. Phys. 1988, 37, 785-789; PQSmol, Version 4.1; Parallel Quantum Solutions: […]. et al. J. Chem. […] [[…]. et al. Bioorg. Med. Chem. 2016, 24, 3371-3377] Glyconoamidines are prone to nucleophilic attack at the anomeric C atom and subsequent hydrolysis in alkaline solution. Various glyconoamidines have been previously synthesized. [Bleriot, Y. et al. Bioorg. Med. Chem. Lett. 1995, 5, 2655-60; Bleriot, Y. et al. Tetrahedron Lett. 1994, 35, 1867-70; Heck, M.-P. et al. J. Am. Chem. Soc. 2004, 126, 1971-1979; […]. Res. 1996, 29, 340-347] We evaluated the hydrolysis of galactonoamidine 1 under various buffer and temperature conditions to ensure its stability under polymerization conditions. […] The stability of 1 was also observed at 0 and 10° C. over a 3 h time period in 5 mM CAPS buffer solution at pH 10.50. Buffer solutions with similar molarity at lower pH values behave likewise (FIG. 13).

E. coli (BL21 DE3) = assay: Minimal inhibitory concentration (MIC), broth microdilution, E. coli; assay type: cell-based; settings: for MIC: Escherichia coli, read-out: MIC E. coli
Description: (§1) The minimal inhibitory concentration (MIC) and minimal bactericidal concentration (MBC) by broth microdilution assays in 96-well plates to determine antimicrobial activity of selected agents against Gram-positive and Gram-negative bacteria
(§2) Antimicrobial materials: In a typical experiment, the synthesized polymers were prepared for antimicrobial assays as described for the kinetic assays in Example 4(A), except as indicated in Tables 7-10 and 12.
(§3) Mueller Hinton broth (MHB): A sterile broth is prepared with 4.50 g Mueller Hinton base (Hardy Diagnostics) in 200 mL deionized water. The broth is cooled to room temperature after being autoclaved and stored at 4° C. until use.
(§4) Propagation of bacterial cells: Typically, 500 μL aliquots of S. aureus (ATCC® 25923™) or E. coli (BL21 DE3) cells are used to inoculate 5 mL of Mueller Hinton broth. The inoculum is shaken at 37° C. and 240 rpm for 6 h. Then, 500 μL aliquots are transferred to individual vessels, flash-frozen in liquid nitrogen, and stored as pre-starter cultures at −20° C. until use.
(§5) Growth of bacterial cells: A 500 μL pre-starter culture is used to inoculate 5 mL of Mueller Hinton broth at 37° C. After 5 h of shaking at 240 rpm, a 500 μL of the inoculum is diluted to 20 mL with sterile MHB, followed by three successive 1:10 dilutions of 1000 μL of the resulting solutions into 10 mL MHB. Subsequently, 50 μL of the most dilute cell suspension is spread on a Mueller-Hinton agar plate, and incubated at 37° C. After 24 h, selected colonies are re-suspended in 4 mL of Mueller-Hinton broth and diluted until their OD625 value matched that of a 0.5 McFarland standard at 37° C. to account for a cell concentration of 1×10^8 CFU/mL. Typically, a 50 μL aliquot of the cell suspension is diluted into 10 mL of Mueller-Hinton broth to obtain a stock solution of S. aureus cells at a concentration of 5×10^5 CFU/mL. Typically, two separate inoculums are prepared immediately prior to use.
(§6) Preparation of broth microdilution assays and data recording: Following standard procedures for conducting broth microdilution assays, 100 μL aliquots of Mueller-Hinton broth are added to each well. Subsequently, a 100 μL aliquot of the sterile antimicrobial agent solution is added in the first column of the plate and then diluted in a serial manner by subsequent transfers of 100 μL aliquots over the first 10 columns. […] Typically, the absorbance in each well is then monitored at 595 nm and 37° C. over a 16 h period in 2 h intervals.
(§7) Data analysis: The obtained absorbance data are plotted against time to determine the steady state point of cell growth. The change of absorbance at this time for wells with and without antimicrobial agent is then plotted against the concentration of the antimicrobial agent. […]

S. aureus (ATCC 25923) = assay: Minimal inhibitory concentration (MIC), broth microdilution, S. aureus; assay type: cell-based; settings: for MIC: Staphylococcus aureus
Description: as §1, §2, §3, §4, §5, §6, §7

[2] = Coordination to binuclear complex Cu2bpdpo, isothermal titration calorimetry; assay type: binding; settings: coordination to the metal complex; pH 10.50, 10° C.
Description: The coordination of galactonoamidine 1 to binuclear complexes was already evaluated in part and included Cu2bpdpo (5), a nonpolymerizable analogue of 3 (FIG. 15).

B21 DE3 E. coli cells = assay: Growth of E. coli cells in petridish assays with Müller-Hinton/agar media; assay type: cell-based; settings: 37° C., 12 h
Description: Sterile Müller-Hinton/Agar (MH) media. 4.54 g Müller-Hinton media and 5.07 g agar were dissolved in 200 mL deionized water. The media were autoclaved and stored at 4° C. until use.
E. coli cell culture. A 100 μL aliquot of B21 DE3 E. coli cells, purchased from New England Biolabs, were added to 1 mL of sterile Luria-Bertani broth; the culture was incubated for 2 hours at 37° C. Then, a 100 μL aliquot of this culture was diluted by serial dilution 200,000-fold with sterile LB (Miller's) media yielding 10 mL of a stock solution of the cell culture.
Stock solution of low molecular weight complex Cu2bpdpo (catalyst 1). 5.28 mg of Cu2bpdpo were dissolved in 5 mL of 50 mM HEPES buffer at pH 7.00; a 1000 μl aliquot of the resulting solution was further diluted into 10 mL yielding a 160.3 μM stock solution of Cu2bpdpo.
Stock solution of Hen Egg-white lysozyme (catalyst 2). 11.53 mg of lyophilized lysozyme purchased from AMRESCO were dissolved in 5 mL of 50 mM HEPES buffer at pH 7.00 and used as a 161.1 μM stock solution.
Stock solutions of microgels (catalysts 3-5). All microgel stock solutions were treated as described above, but only diluted 1:5 during activation and then sterilized prior to use for these experiments. The stock solution for ^Cu2LPgal (40%) is 112.3 μM, for ^Cu2LPgal (60%) 145.6 μM and for ^Cu2LP1 (60%) 153.6 μM.
Plate preparation. […]

[3] = assay type: biochemical; settings: for Km / kcat: substrate β-9
Description: 2.8.4. Catalytic Glycoside Hydrolysis. […]
Substrate Stock Solution. […] As the glycoside precipitates in this concentration from aqueous solutions at ambient temperature, the resulting solution was kept above 50° C. until use.
Catalyst Stock Solutions. The microgel dispersions were used as described above. […]
Kinetic Assay. In a typical experiment, 20 μL of an activated microgel dispersion were added to aliquots of the glycoside stock solution (0-100 μL) and corresponding amounts of buffer solution, keeping the nominal volume of the resulting solutions at 200 μL. […] The product formation was read in 20 min intervals after orbital shaking of the solutions over 5 s each. All experiments were performed in duplicate or triplicate.
Data Analysis. The collected fluorescence intensity was plotted over time, and a linear fit applied to the data collected between 140 and 480 min. The calculated rates of the reaction were then corrected by the corresponding apparent extinction coefficient and catalyst amount, averaged from two independent experiments, and plotted over the molar substrate concentration. Nonlinear regression of the resulting hyperbolic data yielded the rate constant kcat and the apparent substrate affinity KM. The rate constant of the uncatalyzed reaction knon was determined by applying a linear fit to the corrected rates of the collected data obtained in absence of catalyst. Data obtained in the presence of metal-ion free control polymer ^LPgal and from control polymer ^Cu2LPEG were treated likewise to estimate their catalytic efficiency.
The turbidity of the aqueous microgel dispersions under consideration here increases visibly to the naked eye with the crosslinking content from 5 to 80 mol % EGDMA. As a consequence, the apparent extinction coefficient (εapp) was determined for each microgel under the respective assay conditions prior to analysis of related spectroscopic data. […] (FIG. 9). [Chen, R. F Anal. Lett. 1968, 1(7), 423-428] […] [Striegler 2010] and used here to establish catalytic activity of the newly synthesized crosslinked microgels. The assay was developed in a 96-well plate format to allow fast catalyst screening under various reaction conditions, including lower pH values in future efforts.
Likewise, a linear correlation between the concentration of the low molecular weight complex Cu2bpdpo (2) and the product formation of the glycoside hydrolysis was observed when the catalyst was used in concentrations up to 12 μM under assay conditions. With a fast screening assay on hand, the hydrolysis of glycoside 6 was evaluated with two different microgel catalysts at 60% crosslinking content: a polymer […] prepared in the presence of galactose and its metal-free, nonactivated analogue ^LPgal. Control experiments were conducted using a microgel ^Cu2LPEG that has the same crosslinking content as those polymers above, but is prepared in the presence of ethylene glycol instead of galactose. Additionally, hydrolysis of 6 was followed in the presence of low molecular weight complex Cu2bpdpo (2) and in the absence of catalyst in the buffer solution itself. The resulting hyperbolic data for the glycoside hydrolyses were analyzed by applying the Michaelis-Menten model to obtain the rate of the reaction (kcat), the substrate affinity (KM), and the rate of the uncatalyzed reaction (knon) in aqueous buffer solution. The catalytic proficiency (kcat/(KM×knon), catalytic efficiency (kcat/KM), and acceleration of the reaction over the uncatalyzed background reaction (kcat/knon) were then calculated therefrom as described (Table 1, FIG. 11).
Activated microgel catalysts were prepared as described. [Sharma Biomacromolecules 2018] Typical stock solutions were as follows: Cu2bpdpo […] 2 mM, β-galactosidase as described [Sharma ACS Catal. 2018], 4-methylumbelliferyl α-D-galactopyranoside (α-9) 8-9 mM, and 4-methylumbelliferyl […] 3-4 mM. […]

[4] = broth microdilution, 37° C., 2.5×10^5 CFU/mL
[5] = ATCC25923, broth microdilution, 37° C., 2.5×10^5 CFU/mL, read-out: MIC S. aureus
[6] = 5 mM aqueous HEPES buffer, pH 7.00, 37° C.
[7] = 50 mM aqueous CAPS buffer, pH 10.50, 37° C.

Description for physchem: As the dissociation constant of CEA in water is to the best of our knowledge not reported, we used the structural similarity between CEA and propionic acid to predict the pKa value of CEA as 4.9.42 We then projected the pKa value of a linear CEA-polymer as 5.6, and estimated the pKa value of a crosslinked microgel with 20 mol % of CEA as 10.1 following the method by Fisher and Kunin as described.43 In short, the apparent pKa values of crosslinked microgels were estimated from the pKa(m=1) value of a linear polymer of the monomeric acid as eq 2 pKa,app=pKa(m=1)(2−m) (eq 2) where m is the mol fraction of the monomeric acid. The dissociation constant of the linear polymer is estimated graphically by extrapolation.

In the case of `Cc1ccc(CNC2=NC(CO)C(O)C(O)C2O)cc1` (stereo not drawn) [galactonoamidine 1], the stability against hydrolysis ([1]; 50 mM CAPS buffer, pH 10.50, 72° C.) is reported as “instant hydrolysis”, the stability against hydrolysis ([1]; buffer strength lowered to 5 mM, pH 10.50, 72° C.) is reported as “slowed the hydrolysis” and the stability against hydrolysis ([1]; pure deuterium oxide, 72° C., 3 h) is reported as “stable”.

`CCCCCCCCCCCCOS(=O)(=O)[O-].[Na+]` [SDS, sodium dodecyl sulfate] showed an MIC (E. coli (BL21 DE3); [4]) of 325 ± 11 µg/mL and an MIC (S. aureus (ATCC 25923); [5]) of 122 ± 1 µg/mL.

With `O=C[C@H](O)[C@@H](O)[C@@H](O)[C@H](O)CO` [galactose] the “pKa, gal” value [2] was 2.70.

In the case of “lysozyme: Hen Egg-white lysozyme purchased from AMRESCO”, the “inhibition of cell growth of E. coli on Müller-Hinton agar plates” value (B21 DE3 E. coli cells) is reported as “inhibition of cell growth to a much smaller extend”.

Work on `O=C(N[C@H](CO)[C@H](O)c1ccc([N+](=O)[O-])cc1)C(Cl)Cl` [Chloramphenicol] yielded an MIC (E. coli (BL21 DE3); [4]) of 1.29 ± 0.04 µg/mL (≈ 3.99 µM) and an MIC (S. aureus (ATCC 25923); [5]) of 6.11 ± 0.02 µg/mL (≈ 18.9 µM).

Compound `C=CC(=O)OCCC(=O)O` [CEA monomer, carboxyethyl acrylate] has a pKa (physchem) of 4.9.

For Benzalkonium chloride, the “MIC E. coli” value (E. coli (BL21 DE3); [4]) was 117 ± 1 µg/mL and the “MIC S. aureus” value (S. aureus (ATCC 25923); [4]) was 4.32 ± 0.01 µg/mL.

Compound `CN[C@H](CC(C)C)C(=O)N[C@H]1C(=O)N[C@@H](CC(N)=O)C(=O)N[C@H]2C(=O)N[C@H]3C(=O)N[C@H](C(=O)N[C@H](C(=O)O)c4cc(O)cc(O)c4-c4cc3ccc4O)[C@H](O)c3ccc(c(Cl)c3)Oc3cc2cc(c3O[C@@H]2O[C@H](CO)[C@@H](O)[C@H](O)[C@H]2O[C@H]2C[C@](C)(N)[C@H](O)[C@H](C)O2)Oc2ccc(cc2Cl)[C@H]1O` [Vancomycin] has an MIC (E. coli (BL21 DE3)) of 12.5 ± 0.2 µg/mL (≈ 8.63 µM) and an MIC (S. aureus (ATCC 25923); ATCC25923, read-out: MIC S. aureus) of 2.35 ± 0.14 µg/mL (≈ 1.62 µM).

For “β-galactosidase: β-galactosidase (bovine liver)”, the “stabilization of enzyme-catalyzed hydrolysis relative to microgel ^Cu2LP1” value ([3]; pH 7) was 3.5×106 fold, the “catalytic proficiency relative to low molecular weight complex Cu2bpdpo” value ([3]; substrate 6 / β-9, pH 10.50, CAPS, 37° C.) was “about 3250 fold” and the Km [3, 6] was 110 ± 220 µM. For the same compound, the kcat [3, 6] was 4.6 ± 0.1 min⁻¹, the Km [3, 7] was 540 ± 60 µM and the kcat [3, 7] was 2.95 ± 0.09 10^−3 min^−1. For the same compound, the “catalytic proficiency higher than that of amidine-templated microgel ^Cu2LP1” value ([3]; β-9, alkaline solution, pH 10.50) was “about 57 fold”.
